Test results as given in the supplement of paper PMC9912026.

Tested on: A375_aEGFR2
Test: pERK immunofluorescence normalised to no-drug reference (=1); higher = more ERK phosphorylation (less pathway inhibition)
Conditions: drug treatment time 24 h, EGF time 8 h
Protocol: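 A375 CRISPRa-EGFR (A375_aEGFR2) or HT29 cells were treated with two-drug dose combinations (vemurafenib, LY3009120, cobimetinib) for 24 h, then stimulated with EGF (100 ng/mL) or mock medium for 8 h. pERK (T202/Y204) was measured by immunofluorescence as the cytosolic population average, normalised to an untreated no-drug reference of the block (=1). Averages of 2 technical replicates. A375 in 5% FBS, HT29 in 10% FBS.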

CNc1ncc2cc(-c3cc(NC(=O)NCCC(C)(C)C)c(F)cc3C)c(C)nc2n1 + O=C(c1ccc(F)c(F)c1Nc1ccc(I)cc1F)N1CC(O)([C@@H]2CCCCN2)C1 [Cobimetinib]
pERK immunofluorescence normalised
Conditions | drug A concentration 0.01 µM | drug A concentration 0.0316228 µM | drug A concentration 0.1 µM | drug A concentration 0.316228 µM | drug A concentration 1 µM | drug A concentration 3.16228 µM
drug B concentration 0 µM, EGF 0 ng/mL | – | 0.503 | 0.301 | 0.246 | 0.239 | 0.245
drug B concentration 0 µM, EGF 100 ng/mL | – | 0.601 | 0.436 | 0.336 | 0.26 | 0.227
drug B concentration 31.62 pM, EGF 0 ng/mL | – | 0.461 | 0.293 | 0.248 | 0.24 | 0.243
drug B concentration 31.62 pM, EGF 100 ng/mL | – | 0.56 | 0.419 | 0.325 | 0.254 | 0.224
drug B concentration 0.0001 µM, EGF 0 ng/mL | – | 0.488 | 0.302 | 0.25 | 0.248 | 0.243
drug B concentration 0.0001 µM, EGF 100 ng/mL | – | 0.582 | 0.422 | 0.339 | 0.252 | 0.224
drug B concentration 0.000316228 µM, EGF 0 ng/mL | – | 0.466 | 0.286 | 0.246 | 0.238 | 0.242
drug B concentration 0.000316228 µM, EGF 100 ng/mL | – | 0.546 | 0.399 | 0.317 | 0.246 | 0.228
drug B concentration 0.001 µM, EGF 0 ng/mL | – | 0.385 | 0.273 | 0.245 | 0.237 | 0.241
drug B concentration 0.001 µM, EGF 100 ng/mL | – | 0.524 | 0.373 | 0.298 | 0.242 | 0.219
drug B concentration 0.00316228 µM, EGF 0 ng/mL | – | 0.314 | 0.251 | 0.238 | 0.236 | 0.24
drug B concentration 0.00316228 µM, EGF 100 ng/mL | – | 0.441 | 0.347 | 0.272 | 0.246 | 0.215
drug B concentration 0.01 µM, EGF 0 ng/mL | 0.31 | 0.258 | 0.238 | 0.235 | 0.235 | 0.237
drug B concentration 0.01 µM, EGF 100 ng/mL | 0.454 | 0.351 | 0.281 | 0.234 | 0.217 | 0.214
drug B concentration 0.0316228 µM, EGF 0 ng/mL | 0.247 | 0.239 | 0.232 | 0.232 | 0.233 | 0.239
drug B concentration 0.0316228 µM, EGF 100 ng/mL | 0.333 | 0.263 | 0.233 | 0.216 | 0.223 | 0.214
drug B concentration 0.1 µM, EGF 0 ng/mL | 0.24 | 0.234 | 0.231 | 0.232 | 0.234 | 0.238
drug B concentration 0.1 µM, EGF 100 ng/mL | 0.245 | 0.223 | 0.215 | 0.211 | 0.212 | 0.218
drug B concentration 0.316228 µM, EGF 0 ng/mL | 0.231 | 0.231 | 0.23 | 0.23 | 0.233 | 0.238
drug B concentration 0.316228 µM, EGF 100 ng/mL | 0.216 | 0.212 | 0.211 | 0.211 | 0.21 | 0.213
drug B concentration 1 µM, EGF 0 ng/mL | 0.231 | 0.231 | 0.231 | 0.231 | 0.234 | 0.239
drug B concentration 1 µM, EGF 100 ng/mL | 0.212 | 0.218 | 0.211 | 0.212 | 0.217 | 0.215
